Data from the NIST ThermoML archive (doi:10.1021/je060271a).
“And” between values parts separate entries of the source, which are not always exact repeats. Equal values may be shown once.

Conditions: 343.16 K, Liquid, Vibrating tube method

CCCCCC(=O)OCC(COC(=O)CCCCC)(COC(=O)CCCCC)COC(=O)CCCCC [pentaerythritol tetrahexanoate]
Conditions	mass density
354.4 kPa	957.4 kg/m3 and 957.3 kg/m3
355.3 kPa	957.3 kg/m3
355.8 kPa	957.3 kg/m3
356.3 kPa	957.3 kg/m3
356.7 kPa	957.4 kg/m3
357 kPa	957.4 kg/m3
357.2 kPa	957.4 kg/m3
357.5 kPa	957.4 kg/m3
357.9 kPa	957.4 kg/m3
358.6 kPa	957.4 kg/m3
359.5 kPa	957.4 kg/m3
360.3 kPa	957.4 kg/m3
360.5 kPa	957.3 kg/m3
360.7 kPa	957.3 kg/m3
361.4 kPa	957.3 kg/m3
361.6 kPa	957.4 kg/m3
361.9 kPa	957.3 kg/m3
362.3 kPa	957.5 kg/m3
362.6 kPa	957.5 kg/m3
362.9 kPa	957.4 kg/m3
365.9 kPa	957.3 kg/m3 and 957.4 kg/m3
366.4 kPa	957.3 kg/m3
366.8 kPa	957.4 kg/m3
367.3 kPa	957.3 kg/m3
367.6 kPa	957.3 kg/m3
368 kPa	957.5 kg/m3
368.1 kPa	957.3 kg/m3
368.5 kPa	957.4 kg/m3
370.4 kPa	957.4 kg/m3
370.8 kPa	957.3 kg/m3
371.3 kPa	957.5 kg/m3
371.6 kPa	957.4 kg/m3
372 kPa	957.4 kg/m3
372.3 kPa	957.4 kg/m3
379.4 kPa	957.5 kg/m3
379.8 kPa	957.4 kg/m3
380.3 kPa	957.4 kg/m3
405.3 kPa	957.4 kg/m3
406 kPa	957.4 kg/m3
406.2 kPa	957.3 kg/m3
406.4 kPa	957.4 kg/m3
406.9 kPa	957.4 kg/m3
410.7 kPa	957.3 kg/m3
411.1 kPa	957.4 kg/m3
411.8 kPa	957.4 kg/m3
412.5 kPa	957.5 kg/m3
415.9 kPa	957.4 kg/m3
416.3 kPa	957.4 kg/m3
416.6 kPa	957.3 kg/m3
417.3 kPa	957.2 kg/m3
417.7 kPa	957.3 kg/m3
421.8 kPa	957.4 kg/m3
422.4 kPa	957.5 kg/m3
422.9 kPa	957.5 kg/m3
423.1 kPa	957.4 kg/m3
495.2 kPa	957.5 kg/m3
498.6 kPa	957.4 kg/m3
501.8 kPa	957.5 kg/m3
506.1 kPa	957.5 kg/m3
509.6 kPa	957.5 kg/m3
513.1 kPa	957.4 kg/m3
517.4 kPa	957.5 kg/m3
521.2 kPa	957.5 kg/m3
541.9 kPa	957.6 kg/m3
598.9 kPa	957.5 kg/m3
1360.7 kPa	958.2 kg/m3
1373.7 kPa	958.2 kg/m3
1386.7 kPa	958 kg/m3
1402 kPa	958.1 kg/m3
1499.4 kPa	958.2 kg/m3
1527.2 kPa	958.3 kg/m3
1543.9 kPa	958.2 kg/m3
1635.2 kPa	958.4 kg/m3
1649.9 kPa	958.4 kg/m3
1664.3 kPa	958.4 kg/m3
1682.1 kPa	958.4 kg/m3
2922.7 kPa	959.2 kg/m3
2945.6 kPa	959.4 kg/m3
3846.3 kPa	960.1 kg/m3
3871.7 kPa	960 kg/m3
3901.2 kPa	960.1 kg/m3
3926.1 kPa	960 kg/m3
3956.3 kPa	960.1 kg/m3
3981.7 kPa	960.2 kg/m3
9203.5 kPa	964.1 kg/m3
9234 kPa	964.1 kg/m3
9270 kPa	964.2 kg/m3
9300.6 kPa	964.1 kg/m3
9331.6 kPa	964.1 kg/m3
9596.7 kPa	964.4 kg/m3
9628.1 kPa	964.4 kg/m3
9666.2 kPa	964.4 kg/m3
9698 kPa	964.4 kg/m3
9736.5 kPa	964.4 kg/m3
9768.5 kPa	964.5 kg/m3
9839 kPa	964.5 kg/m3
9871.9 kPa	964.6 kg/m3
9905.6 kPa	964.5 kg/m3
9938.9 kPa	964.7 kg/m3
9971.6 kPa	964.5 kg/m3
10011 kPa	964.7 kg/m3
10044 kPa	964.7 kg/m3
10084 kPa	964.7 kg/m3
10117 kPa	964.9 kg/m3
10151 kPa	964.7 kg/m3
10192 kPa	965 kg/m3
10225 kPa	964.9 kg/m3
10259 kPa	964.9 kg/m3
10294 kPa	964.9 kg/m3
10335 kPa	964.8 kg/m3
10369 kPa	965 kg/m3
10404 kPa	965 kg/m3
10446 kPa	965 kg/m3
10481 kPa	964.9 kg/m3
10516 kPa	964.9 kg/m3
10551 kPa	965 kg/m3
10593 kPa	965.2 kg/m3
10628 kPa	965.1 kg/m3
10670 kPa	965.1 kg/m3
10705 kPa	965.2 kg/m3
10741 kPa	965.2 kg/m3
10777 kPa	965.2 kg/m3
10820 kPa	965.2 kg/m3
10856 kPa	965.5 kg/m3
10893 kPa	965.4 kg/m3
10929 kPa	965.3 kg/m3
10972 kPa	965.3 kg/m3
12411 kPa	966.4 kg/m3
12434 kPa	966.4 kg/m3
12457 kPa	966.5 kg/m3
12484 kPa	966.4 kg/m3
12507 kPa	966.5 kg/m3
12530 kPa	966.5 kg/m3
12559 kPa	966.6 kg/m3
12577 kPa	966.5 kg/m3
12604 kPa	966.5 kg/m3
12626 kPa	966.5 kg/m3
12653 kPa	966.7 kg/m3
12675 kPa	966.5 kg/m3
12697 kPa	966.5 kg/m3
12722 kPa	966.6 kg/m3
12741 kPa	966.6 kg/m3
12760 kPa	966.7 kg/m3
12778 kPa	966.8 kg/m3
12793 kPa	966.6 kg/m3
